Data published in patent publication US20250388858A1, “COMPOSITION FOR EMBRYONIC DEVELOPMENT, COMPRISING RAD51 ACTIVATOR, AND METHOD FOR IMPROVING EMBRYONIC DEVELOPMENT RATE USING SAME” (CHA UNIVERSITY INDUSTRY-ACADEMIC COOPERATION FOUNDATION, priority 2018, published 2025).

How the values were obtained:
SCNT eggs (F/T SCNT) [1] = assay: Embryonic development of SCNT eggs cultured with RS-1 (somatic cell cloning efficiency); format: cell-based, mice; settings: for Number of embryos at 2-cell stage (%)+: based on the number of reconstructed oocytes; for Number of embryos at 4-cell stage (%)# / Number of blastocysts (%)# / Number of embryos at 2-cell stage block (%)#: based on the number of embryos at 2-cell stage
Method: 5IU PMSG and 5IU hCG hormone were administered into 8-week to 10-week-old female BDF/1 mice. 14 hr after hCG administration, cumulus cells were isolated from superovulated mice using hyaluronidase and eggs were collected. The isolated cumulus cells were refrigerated for use as somatic cell for donor cells, and the isolated eggs were stored in a KSOM culture medium in an incubator at 37° C. until experiments started. Thereafter, to carry out a somatic cell cloning experiment, nuclei were removed from matured eggs, and cumulus cells isolated in advance were directly injected as donor cells. The cumulus cells injected as donor cells were artificially activated in a culture medium containing a Rad51-stimulatory compound 1 (RS-1) for 6 hr. Thereafter, the cells were incubated in the culture medium containing RS-1 reagent for 22 hr. 22 hr later, the cells were incubated in a KSOM culture medium for 72 hr to 96 hr.
First, to examine whether RS-1 induced toxicity to egg development, IVF eggs and SCNT eggs (F/T SCNT) of Example 1 were treated with 0 μM, 1 μM, 5 μM, and 10 μM of RS-1, respectively, and an appropriate concentration was selected.

SCNT eggs (F/T SCNT) [2] = assay: LC3B (autophagy) and MitoTracker (mitochondria) staining of eggs; format: cell-based, mice; settings: 2-cell stage; SCNT+RS-1 group; FIG. 3B
Method: In detail, to evaluate mitochondria distribution, SCNT-derived somatic cell cloned eggs at the 1-cell stage, 2-cell stage, and 4-cell stage were stained using MitoTracker Orange CMTMRos (Molecular Probes). Mitotracker was used at a concentration of 300 nM in an M16 culture medium supplemented with 0.3% BSA at 37° C. for 30 min in the dark. After washing, the oocytes were fixed and immunofluorescently stained with LC3B antibody and then nuclei were stained with DAPI.

SCNT eggs (F/T SCNT) [3] = assay: CellROX reactive oxygen species staining of eggs at the 2-cell stage; format: cell-based, mice; settings: SCNT+RS-1 group, FIG. 5A
Method: In detail, IVF group, SCNT+RS-1 group, and SCNT group at the 2-cell stage were incubated at 37° C. for 30 min in the dark in a culture medium supplemented with 5 μM of CellROX oxidative stress reagent for 30 min. Thereafter, each group was washed with 0.1% PVA-added D-PBS, and nuclei were stained with Hoechst (Sigma).

SCNT eggs (F/T SCNT) [4] = assay: Immunostaining of DNA damage biomarker rH2AX and Rad51; format: cell-based, mice
Method: In detail, IVF group, SCNT group, and SCNT+RS-1 group fixed in 4% paraformaldehyde were arrested at the 1-cell stage, 2-cell stage, and 4-cell stage, and then incubated with rH2AX (Abcam, ab22551) Rad51 (Abcam, ab63801) for 2 hr, followed by incubation in the presence of goat anti-mouse antibody diluted with PBS/0.1% BSA at 1:200, and goat anti-rabbit antibody at the same concentration for 1 hr. Thereafter, nuclei were stained with DAPI.

SCNT eggs (F/T SCNT) [5] = assay: Comet assay for DNA breaks; format: cell-based, mice; settings: SCNT+RS-1 group vs SCNT group; FIG. 6
Method: In detail, to examine DNA damage, each sample in a 1 ml tube from which a culture medium was removed was suspended in 1% agarose at 37° C., and then fixed on a pre-coated slide (Trevigen). The slide was incubated at 4° C. for 4 hr, and then immersed in a solution (Trevigen) at 4° C. for 4 hr. The slide was removed from the lysis solution, and immersed in a 1×TAE buffer at 4° C. for 30 min, followed by electrophoresis for 30 min to 40 min. The slide was immersed in 1 M ammonium acetate at room temperature for 30 min, and then fixed at […] After fixing at room temperature for 30 min, incubation was performed at 42° C. for 20 min until agarose was completely dried. Thereafter, staining was performed using a 1×SYBR green I staining solution for 5 min.

SCNT eggs = assay: RNA sequencing of cloned eggs at the 2-cell stage; format: cell-based, mouse; settings: SCNT+RS-1 group
Method: To examine the effect of RS-1 treatment on SCNT eggs, RS-1 was treated to cloned eggs at the 2-cell stage during the somatic cell cloning procedure of Example 1, followed by RNA sequencing. At this time, IVF eggs were used as a negative control group. In detail, complementary DNA (cDNA) was amplified using a SMARTer ultra-low input RNA Kit for cDNA preparation (Takara, 634890) according to the manufacturer's instructions. cDNA was fragmented into about 200 bp fragments using a M220 sonicator (Covaris). The fragmented cDNAs were subjected to end-repair, and an adapter was ligated thereto. Sequencing libraries were prepared using a ScriptSeq v2 kit (Illumina) according to the manufacturer's instructions. Single-end sequencing was performed in HiSeq2500 (Illumina), and mapped to the mm9 mouse genome using STAR (v2.5.2b, https://github.com/alexdobin/STAR). Subsequently, […] (FPKM) was calculated by cuff link (v2.2.1) with default options.
To examine cloning mechanisms in the RS-1-treated SCNT egg (SCNT+RS-1) of Example 3 and the cloned egg (SCNT+Kdm4a) injected with Kdm4a mRNA during SCNT of Example 2, genes expressed in each egg were examined in the same manner as in Example 8.

[6] = system: surrogate female ICR mice
From the text: It is reported that a success rate of cloned mouse production is generally about 1% after normal somatic cell cloning. Therefore, implantation and cloned pups formation rates of mice were examined according to treatment of SCNT eggs with RS-1. In detail, SCNT and SCNT+RS-1 oocytes at the 2-cell stage were implanted into the uterus of surrogate female ICR mice at 0.5 days after pseudopregnancy. At 19.5 days after implantation, the somatic cell cloned mice were separated from the uterus of the surrogate mother, and then the cloned mice were nurtured together with normal ICR mice born on the same day by ICR mice smeared with the smell of the surrogate mother.

blastocysts of SCNT eggs = assay: Embryonic stem cell establishment from SCNT blastocysts; format: cell-based, mouse; settings: SCNT+RS-1 blastocysts on MEF feeder cells; non-RS-1 treated group 17%; FIG. 9B
Method: In detail, blastocysts of each group was cultured on mouse embryonic fibroblast (MEF cells) feeder cells in a mouse embryonic stem cell culture medium. 20% KSR, 0.1 mM β-mercaptoethanol, 1% non-essential amino acids, 100 units/ml penicillin, 100 μg/ml streptomycin (all products available from GIBCO), 1.5×10^3 units/ml of recombination mLif (Chemicon) were used in the culture medium. Subculture was performed using Trypsin-EDTA, and the established embryonic stem cells of somatic cell cloned mice were treated with alkaline phosphatase. The established stem cells were evaluated by histochemical staining.

## O=C(Nc1ccc(Br)cc1)c1ccc(Br)c(S(=O)(=O)NCc2ccccc2)c1 [RS-1, 3-[(benzylamino)sulfonyl]-4-bromo-N-(4-bromophenyl)benzamide]
SCNT eggs (F/T SCNT) [1]; RS-1 1 μM, 45 NT oocytes
  Number of embryos at 2-cell stage (%)+: 42%
SCNT eggs (F/T SCNT) [1]; RS-1 1 μM
  Number of embryos at 4-cell stage (%)#: 35%
  Number of blastocysts (%)#: 8(19) %
  Number of embryos at 2-cell stage block (%)#: 7(16.7) %
SCNT eggs (F/T SCNT) [1]; RS-1 5 μM, 46 NT oocytes
  Number of embryos at 2-cell stage (%)+: 43%
SCNT eggs (F/T SCNT) [1]; RS-1 5 μM
  Number of embryos at 4-cell stage (%)#: 36%
  Number of blastocysts (%)#: 18(41.9) %
  Number of embryos at 2-cell stage block (%)#: 7(16.3) %
SCNT eggs (F/T SCNT) [1]; RS-1 10 μM, 54 NT oocytes
  Number of embryos at 2-cell stage (%)+: 50%
SCNT eggs (F/T SCNT) [1]; RS-1 10 μM
  Number of embryos at 4-cell stage (%)#: 47%
  Number of blastocysts (%)#: 28(56) %
  Number of embryos at 2-cell stage block (%)#: 3(6) %
SCNT eggs (F/T SCNT) [1]; RS-1 10 μM, control group 31%, Table 1
  embryonic development rate: 76%
SCNT eggs (F/T SCNT) [1]; treatment with RS-1 during SCNT, FIG. 3A, control group 17%
  embryonic development rate: 59%
SCNT eggs (F/T SCNT) [1]; treatment with RS-1 during SCNT, FIG. 3A, control group 39%
  number of embryos at the 2-cell stage block: 5%
SCNT eggs (F/T SCNT) [2]
  autophagy (LC3B) and mitochondria (mitotracker) expression pattern: intensive autophagy and mitochondria expression in the nucleus
SCNT eggs (F/T SCNT) [3]
  reactive oxygen species in the nuclei: tended to increase
SCNT eggs (F/T SCNT) [4]; 1-cell stage, SCNT+RS-1 group vs SCNT group
  DNA damage (rH2AX and Rad51 expression): significant reduction in DNA damage
SCNT eggs (F/T SCNT) [4]; 2-cell stage block, SCNT+RS-1 group compared with other groups
  DNA damage (rH2AX and Rad51 expression): very strong DNA damage in the nucleus
SCNT eggs (F/T SCNT) [5]
  DNA breaks (length of 3'-end, comet assay): DNA breaks were decreased
  generation of the abnormal 3'-end: significantly reduced
SCNT eggs
  number of genes significantly decreased: 414 genes
  number of genes significantly increased: 190 genes
[6]; SCNT+RS-1 oocytes at the 2-cell stage implanted into surrogate ICR mice, generally about 1% after normal cloning, FIG. 9A
  production rate of cloned mouse: 5%
[6]; mouse, in vivo
  toxicity during development: no toxicity problem
Blastocysts of SCNT eggs
  induction rate of embryonic stem cells: 45%
